In patent publication US5677322A, “Maillard reaction inhibitor” (Otsuka Pharmaceutical Co., Ltd., priority 1993, dated 1997):

system: Lysozyme; assay: Inhibition of Maillard reaction: suppression of lysozyme dimer formation (lysozyme + fructose, SDS-PAGE); type: biochemical; conditions: inhibition ratio of test compound to aminoguanidine (positive control); lysozyme 10 mg/ml, fructose 100 mM, 0.2M sodium phosphate pH 7.4, 37° C., 3 days; dimer amount by SDS-PAGE
Description: Lysozyme and fructose were dissolved in a buffer solution of 0.2M sodium phosphate (pH 7.4) to respectively give concentrations of 10 mg/ml and 100 mM. After incubating at 37° C. for 3 days, a definite amount of the mixture was taken out and electrophoresed with the use of SDS-PAGE. After the completion of the electrophoresis, the gel was stained with 0.2% Coomassie Brilliant Blue R-250 and the amount of the dimer thus formed was determined.
Each of the test compounds was added before the initiation of the incubation and the effect of suppressing the formation of the dimer was examined at various concentrations, whereby the IC50 value was obtained. As a positive control, aminoguanidine, which is a known glycation inhibitor, was employed and the inhibition ratio of the test compound to aminoguanidine (IC50 of aminoguanidine/IC50 of test compound) was calculated.

| Compound | IC50 of aminoguanidine/IC50 of test compound |
| --- | --- |
| CC(C)=NN=C1NC(=O)C(CC(=O)NCc2cccs2)S1 (stereo not drawn) [Test compound 70, 2-isopropylidenehydrazono-5-[N-(2-thienylmethyl)carbamoylmethyl]thiazolidin-4-one] | 36 |
| CC(C)=NN=C1NC(=O)C(CC(=O)NC(C)c2ccccc2)S1 (stereo not drawn) [Test compound 72, 2-Isopropylidenehydrazono-5-[N-(1-phenylethyl)carbamoylmethyl]thiazolidin-4-one] | 7.0 |
| CC(C)=NN=C1NC(=O)C(CC(=O)NC(C)c2ccccc2)N1 (stereo not drawn) [Test compound 73, 2-Isopropylidenehydrazono-5-[N-(1-phenylethyl)carbamoylmethyl]imidazolidin-4-one] | 1.3 |
| O=C1NC(=NNS(=O)(=O)c2ccc(Br)cc2)NC1Cc1ccc(OCc2ccccc2)cc1 (stereo not drawn) [Test compound 75] | 1.5 |
| O=C1NC(=NN=C2CCCC2)NC1Cc1ccc(OCc2ccccc2)cc1 (stereo not drawn) [Test compound 77, 2-Cyclopentylidenehydrazono-5-(4-benzyloxybenzyl)imidazolidin-4-one] | 2.2 |
| CC(C)=NN=C1NC(=O)C(Cc2c[nH]cn2)N1 (stereo not drawn) [Test compound 78, 5-(4-Imidazolylmethyl)-2-isopropylidenehydrazonoimidazolidin-4-one] | 4.0 |
| CC(C)=NN=C1NC(=O)C(CCC(=O)Nc2ccccc2)N1 (stereo not drawn) [Test compound 80, 2-Isopropylidenehydrazono-5-[2-(N-phenylcarbamoyl)ethyl]imidazolidin-4-one] | 3.1 |
| NN=C1NC(=O)C(CC(=O)Nc2ccccc2)S1 (stereo not drawn) [Test compound 81, 2-Hydrazono-5-(N-phenylcarbamoylmethyl)thiazolidin-4-one] | 0.8 |
| COc1ccc(NC(=O)CC2SC(=NN=C(C)C)NC2=O)cc1OC (stereo not drawn) [Test compound 90, 5-[N-(3,4-dimethoxyphenyl)carbamoylmethyl]-2-isopropylidenehydrazonothiazolidin-4-one] | 42 |
| COC(=O)c1ccccc1NC(=O)CC1SC(=NN=C(C)C)NC1=O (stereo not drawn) [Test compound 93, 2-Isopropylidenehydrazono-5-[N-(2-methoxycarbonylphenyl)carbamoylmethyl]thiazolidin-4-one] | 26 |
| COc1ccc(NC(=O)Cc2csc(NN=C(C)C)n2)cc1OC [Test compound 94, 4-[N-(3,4-dimethoxyphenyl)carbamoylmethyl]-2-isopropylidenehydrazinothiazole] | 33.7 |
| CC(C)=NN=C1NC(=O)C(CC(=O)N[C@@H](Cc2c[nH]c3ccccc23)C(=O)O)S1 (stereo partly drawn) [Test compound 104, 5-{N-[1-carboxy-2-(3-indolyl)ethyl]carbamoylmethyl}-2-isopropylidenehydrazonothiazolidin-4-one] | 0.7 |
| CC(C)=NN=C1NC(=O)C(CC(=O)Nc2c(C)cccc2C)S1 (stereo not drawn) [Test compound 112, 5-[N-(2,6-dimethylphenyl)carbamoylmethyl]-2-isopropylidenehydrazonothiazolidin-4-one] | 6.4 |
| COc1cc(NC(=O)CC2SC(=NN=C(C)C)NC2=O)c(C(=O)O)cc1OC (stereo not drawn) [Test compound 114, 5-[N-(2-carboxy-4,5-dimethoxyphenyl)carbamoylmethyl]-2-isopropylidenehydrazonothiazolidin-4-one] | 5.4 |
| COc1ccc(NC(=O)CC2SC(=NN=C(C)C)NC2=O)c(C)c1 (stereo not drawn) [Test compound 116, 2-Isopropylidenehydrazono-5-[N-(4-methoxy-2-methylphenyl)carbamoylmethyl]thiazolidin-4-one] | 7.3 |
| CC(C)=NN=C1NC(=O)C(CC(=O)Nc2ccc(F)cc2C(=O)O)S1 (stereo not drawn) [Test compound 117, 5-[N-(2-carboxy-4-fluorophenyl)carbamoylmethyl]-2-isopropylidenehydrazonothiazolidin-4-one] | 7.0 |
| COC(=O)c1c(F)cccc1NC(=O)CC1SC(=NN=C(C)C)NC1=O (stereo not drawn) [Test compound 118, 5-[N-(3-fluoro-2-methoxycarbonylphenyl)carbamoylmethyl]-2-isopropylidenehydrazonothiazolidin-4-one] | 6.1 |
| CC(C)=NN=C1NC(=O)C(C(C)C)N1 (stereo not drawn) [compound 79] | 1.5 |
